Results reported in patent publication US10821104B2, “Five-membered heterocyclic amides WNT pathway inhibitor” (SUZHOU SINOVENT PHARMACEUTICALS CO., LTD., priority 2015, dated 2020).
Where two headings read alike, the source gives them in different places.

Assays:
[1] = tested on: zebrafish axis formation; assay: Effect of compounds on axis formation of zebrafish (zebrafish phenotype screening); format: in vivo, Zebrafish Danio rerio; conditions: embryos treated from 3 h to 48 h post fertilization, concentration at which 50% of axis formation is inhibited, read-out: IC50, inhibition of axis formation of zebrafish
Procedure: Method: Zebrafish embryos were collected after natural spawning. Embryos were treated from the 16 cell stage (3 hours post fertilization) with different concentration series 100 μM˜0.001 μM of the compound in 1% DMSO/fish water or with DMSO equivalent. The zebrafish were placed in a 6-well microplate at a density of 20 zebrafish per well with 3 mL of fish water. Zebrafish were incubated at 28.5° C. in the dark until 48 h post fertilization, then anesthetized, and imaged under a dissecting stereomicroscope installed with a high-speed video camera (JVC, Japan). Quantitative length of axis was performed with NIS-Elements D 3.1 soft and pixels data were expressed as mean±SEM. The effect of compound on axis formation of zebrafish was calculated based on the following formula: Inhibition on axis growth (%)=[1−Pixel(compound)/Pixel(vehicle)]×100%
(§1) Inhibition curves were generated using GraphPad Prism 6.0 (GraphPad Software Inc., San Diego Calif.) and IC50 was determined with logistic regression.

[2] = tested on: Wnt/β-catenin reporter (Super 8×TOPFLASH) in HEK293 cells cocultured with L-Wnt3a-expressing cells; assay: 293T/TOPLUC-Wnt3a luciferase reporter gene assay; format: cell-based; conditions: read-out: IC50, inhibition of Wnt/β-catenin reporter gene readout
Procedure: In this assay, HEK293 cells harboring a luciferase-based Wnt/β-catenin reporter (Super 8×TOPFLASH) were cocultured with L-Wnt3a-expressing cells. 293T/TOPLUC-Wnt3a were incubated with small molecules for 24 h. The level of the Luciferase reporter gene was used as an indicator for Wnt ligand-driven, LEF/TCF-dependent transcriptional activities. IC50 is defined as the compound concentration at which 50% of luciferase reporter activity is inhibited.
Results: REX-P compounds were investigated on CrownBio Cell plateform to assay the activity of inhibiting Wnt/β-catenin reporter activity, results are shown in Table 3.

[3] = tested on: regeneration of zebrafish tailfin resected; assay: Effect of compounds on tailfin regeneration of zebrafish (resected caudal fin); format: in vivo; conditions: Danio rerio; 3 d.p.f. zebrafish with resected caudal fins treated until 7 d.p.f.; read-out: IC50, inhibition of regeneration of zebrafish tailfin resected
Procedure: Method: Three days post fertilization (d.p.f) zebrafish with resected caudal fins were placed in water containing 1% DMSO carrier or compounds (10 μM˜0.001 μM) until 7 d.p.f. The zebrafish were placed in a 6-well microplate at a density of 15 zebrafish per well with 3 mL of fish water. Zebrafish were incubated at 28.5° C. in the dark until 7 d.p.f., then anesthetized, and imaged under a dissecting stereomicroscope installed with a high-speed video camera (JVC, Japan). Quantitative length of regeneration of tailfin was performed and pixels data were expressed as mean±SEM. The effect of compound on regeneration of tailfin of zebrafish was calculated based on the following formula: Drug inhibition on regeneration of tailfin (%)=[1−Pixel(compound)/Pixel(vehicle)]×100%.
as §1

[4] = Metabolic stability in mouse liver microsomes; format: in vitro ADME
Source text: (§2) Metabolic stability and pharmacokinetic characteristics of REX-P-7 were detected in human and mouse liver microsomes and in Balb/c mice, respectively.

[5] = Metabolic stability in human liver microsomes; format: in vitro ADME
Source text: as §2

[6] = In vivo PK in Balb/c mice
Procedure: as §2
Method of PK experiment: 18 male Balb/c mice were divided into 2 groups, 9 animals in each group. Group 1 was administered intravenously with REX-P-7 at a dose of 5 mg/kg. Group 2 was administered orally with REX-P-7 at a dose of 10 mg/kg. Blood samples (100 μL) for PK analysis were collected into EDTA microtainers (K2 EDTA, the final concentration in blood sample is 0.25 mg/mL) from retro orbital plexus at pre-dose, 0.083, 0.25, 0.5, 1, 2, 4, 8, 24 hours post-dosing for PO and IV groups. Immediately after collection, blood collection tubes were gently inverted at least 5 times, ensuring complete mixing, then immediately placed on ice. The blood was centrifuged at 8000 rpm for 5 min at 4° C. to separate the plasma from the blood cells. After separation, 35 μL plasma was transferred into clean tube labeled by the compound name, animal number and timepoint. Plasma was stored at −80° C. until analysis.

[7] = Homo sapiens, HEK293, 24 h incubation
[8] = Balb/c mice, summary of Table 4
[9] = IV dose 5 mg/kg, male Balb/c mice, plasma
[10] = PO dose 10 mg/kg, male Balb/c mice, plasma

Compound | IC50 ([1]; Danio rerio) [nM] | IC50 [2, 7] [nM] | IC50 [3] [nM] | also measured
5-(4-chlorophenyl)-N-((2′,3-dimethyl-[2,4′-bipyridin]-5-yl)methyl)thiazole-2-carboxamide [REX-P-13] | – | – | – | IC50 [1]: > 10000 nM; IC50 ([2]; 24 h incubation): > 1000 nM
Cc1cc(-c2ncc(CC(=O)Nc3ccc(-c4cnccn4)cn3)cc2C)ccn1 [LGK-974, reference compound] | 583 | 0.574 | 462 | –
Cc1cc(-c2ncc(CNC(=O)c3cc(-c4ccccc4)nn3C)cc2C)ccn1 [REX-P-1, N-((2′,3-dimethyl-[2,4′-bipyridin]-5-yl)methyl)-1-methyl-3-phenyl-1H-pyrazole-5-carboxamide] | 29900 | 92.6 | – | –
Cc1cc(-c2ncc(CNC(=O)c3cc(-c4ccccc4)[nH]n3)cc2C)ccn1 [REX-P-2, N-((2′,3-dimethyl-[2,4′-bipyridin]-5-yl)methyl)-5-phenyl-1H-pyrazole-3-carboxamide] | 8230 | 1.76 | 3910 | –
Cc1cc(-c2ncc(CNC(=O)c3cnc(-c4ccccc4)s3)cc2C)ccn1 [REX-P-3, N-((2′,3-dimethyl-[2,4′-bipyridin]-5-yl)methyl)-2-phenylthiazole-5-carboxamide] | 144 | < 0.1 | 84 | –
Cc1cc(-c2ncc(CNC(=O)c3ncc(-c4ccccc4)s3)cc2C)ccn1 [REX-P-4, N-((2′,3-dimethyl-[2,4′-bipyridin]-5-yl)methyl)-5-phenylthiazole-2-carboxamide] | 36.9 | < 0.1 | – | –
Cc1cc(-c2ncc(CNC(=O)c3csc(-c4ccccc4)n3)cc2C)ccn1 [REX-P-5, N-((2′,3-dimethyl-[2,4′-bipyridin]-5-yl)methyl)-2-phenylthiazole-4-carboxamide] | > 40000 | > 1000 | – | –
Cc1cc(-c2ncc(CNC(=O)c3nc(-c4ccccc4)cs3)cc2C)ccn1 [REX-P-6, N-((2′,3-dimethyl-[2,4′-bipyridin]-5-yl)methyl)-4-phenylthiazole-2-carboxamide] | > 100000 | > 1000 | – | –
Cc1cc(-c2ncc(CNC(=O)c3cc(-c4ccccc4)on3)cc2C)ccn1 [REX-P-7, N-((2′,3-dimethyl-[2,4′-bipyridin]-5-yl)methyl)-5-phenylisoxazole-3-carboxamide] | 24 | 0.69 | 47 | Eh % (MLM) [4]: 65%; Eh % (HLM) [5]: 56.7%; bioavailability (in words) [6, 8]: good bioavailability; half-life (in words) [6, 8]: good half-life; CL (/F) ([6]; IV dose 5 mg/kg, male Balb/c mice): 2.83 mL/min/kg; AUC0-t/Dose [6, 9]: 5770 ng·h/mL; Cmax/Dose [6, 9]: 4167 ng/mL; AUC0-t/Dose [6, 10]: 2922 ng·h/mL; Cmax/Dose [6, 10]: 1923 ng/mL; half-life ([6]; mouse, plasma, IV dose 5 mg/kg, male Balb/c mice): 1.68 h; bioavailability ([6]; mouse, plasma, PO 10 mg/kg vs IV 5 mg/kg, male Balb/c mice): 50.6%; half-life ([6]; mouse, plasma, PO dose 10 mg/kg, male Balb/c mice): 1.62 h
Cc1cc(-c2ncc(CNC(=O)c3nnc(-c4ccccc4)s3)cc2C)ccn1 [REX-P-8, N-((2′,3-dimethyl-[2,4′-bipyridin]-5-yl)methyl)-5-phenyl-1,3,4-thiadiazole-2-carboxamide] | 21 | 1.92 | 27 | –
Cc1cc(-c2ncc(CNC(=O)c3cc(-c4ccccc4)n(C)n3)cc2C)ccn1 [REX-P-9, N-((2′,3-dimethyl-[2,4′-bipyridin]-5-yl)methyl)-1-methyl-5-phenyl-1H-pyrazole-3-carboxamide] | > 20000 | > 1000 | – | –
Cc1cc(-c2ncc(CNC(=O)c3ncc(-c4cccc(Cl)c4)s3)cc2C)ccn1 [REX-P-12, 5-(3-chlorophenyl)-N-((2′,3-dimethyl-[2,4′-bipyridin]-5-yl)methyl)thiazole-2-carboxamide] | > 100000 | 9.16 | – | –
Cc1cc(-c2ncc(CNC(=O)c3cc(-c4ccccn4)[nH]n3)cc2C)ccn1 [REX-P-16, N-((2′,3-dimethyl-[2,4′-bipyridin]-5-yl)methyl)-5-(pyridin-2-yl)-1H-pyrazole-3-carboxamide] | > 10000 | 16.8 | – | –
Cc1cc(-c2ncc(CNC(=O)c3cnc(-c4cccc(Cl)c4)s3)cc2C)ccn1 [REX-P-22, 2-(3-chlorophenyl)-N-((2′,3-dimethyl-[2,4′-bipyridin]-5-yl)methyl)thiazole-5-carboxamide] | 178 | 0.72 | 28 | –
Cc1cc(-c2ncc(CNC(=O)c3nnc(-c4cccc(Cl)c4)s3)cc2C)ccn1 [REX-P-45, 5-(3-chlorophenyl)-N-((2′,3-dimethyl-[2,4′-bipyridin]-5-yl)methyl)-1,3,4-thiadiazole-2-carboxamide] | 14 | 0.31 | 23 | –
Cc1cc(-c2ncc(CNC(=O)c3nnc(-c4cccc(F)c4)s3)cc2C)ccn1 [REX-P-46, N-((2′,3-dimethyl-[2,4′-bipyridin]-5-yl)methyl)-5-(3-fluorophenyl)-1,3,4-thiadiazole-2-carboxamide] | 10 | 0.125 | 16 | –
Cc1cc(-c2ncc(CNC(=O)c3nnc(-c4ccccn4)s3)cc2C)ccn1 [REX-P-47, N-((2′,3-dimethyl-[2,4′-bipyridin]-5-yl)methyl)-5-(pyridin-2-yl)-1,3,4-thiadiazole-2-carboxamide] | 163 | 0.673 | 207 | –
Cc1cc(-c2ncc(CNC(=O)c3nnc(-c4ncccc4F)s3)cc2C)ccn1 [REX-P-48, N-((2′,3-dimethyl-[2,4′-bipyridin]-5-yl)methyl)-5-(3-fluoropyridin-2-yl)-1,3,4-thiadiazole-2-carboxamide] | 896 | – | 721 | –
Cc1cc(-c2ncc(CNC(=O)c3nnc(-c4cncc(F)c4)s3)cc2C)ccn1 [REX-P-49, N-((2′,3-dimethyl-[2,4′-bipyridin]-5-yl)methyl)-5-(5-fluoropyridin-3-yl)-1,3,4-thiadiazole-2-carboxamide] | 52 | 0.248 | 137 | –
Cc1cc(-c2ncc(CNC(=O)c3nnc(-c4cccc(C)n4)s3)cc2C)ccn1 [REX-P-50, N-((2′,3-dimethyl-[2,4′-bipyridin]-5-yl)methyl)-5-(6-methylpyridin-2-yl)-1,3,4-thiadiazole-2-carboxamide] | 64 | 0.389 | 111 | –
Cc1cc(-c2ncc(CNC(=O)c3nnc(-c4ncccn4)s3)cc2C)ccn1 [REX-P-51, N-((2′,3-dimethyl-[2,4′-bipyridin]-5-yl)methyl)-5-(pyrimidin-2-yl)-1,3,4-thiadiazole-2-carboxamide] | > 10000 | – | – | –
Cc1cc(-c2ncc(CNC(=O)c3nnc(-c4cnccn4)s3)cc2C)ccn1 [REX-P-52, N-((2′,3-dimethyl-[2,4′-bipyridin]-5-yl)methyl)-5-(pyrazin-2-yl)-1,3,4-thiadiazole-2-carboxamide] | 640 | 1.38 | 746 | –
Cc1cc(-c2ncc(CNC(=O)c3nnc(-c4ncccc4C)s3)cc2C)ccn1 [REX-P-56, N-((2′,3-dimethyl-[2,4′-bipyridin]-5-yl)methyl)-5-(3-methylpyridin-2-yl)-1,3,4-thiadiazole-2-carboxamide] | 62 | – | – | –
